Data reported in patent publication US20230279020A9, “CARM1 INHIBITORS AND USES THEREOF” (Epizyme, Inc., priority 2013, published 2023).
pIC50: −log10 of the molar value.

target: Human CARM1 (PRMT4) (Homo sapiens (Human), UniProt Q86X55); assay: CARM1 enzyme assay on peptide substrate (3H-SAM Flashplate); conditions: Biochemical potencies, classification codes; read-out: Biochem IC50
Source text: S-adenosylmethionine (SAM), S-adenosylhomocysteine (SAH), bicine, Tween20, dimethylsulfoxide (DMSO), bovine skin gelatin (BSG), sodium butyrate and Tris(2-carboxyethyl)phosphine hydrochloride solution (TCEP) were purchased from Sigma-Aldrich at the highest level of purity possible. ^3H-SAM was purchase from American Radiolabeled Chemicals with a specific activity of 80 Ci/mmol. 384-well streptavidin Flashplates were purchased from PerkinElmer.
Peptide representative of human histone H3 residues 16-30 was synthesized with an N-terminal linker-affinity tag motif and a C-terminal amide cap by 21st Century Biochemicals. […] The sequence was Biot-Ahx-[…]-amide and contained a monomethylated arginine at position 26 (SEQ ID NO.:1).
The gene sequence encoding isoform1 containing a deletion of amino acids 539-561 was amplified subsequently and subcloned into pFastBacMam (Viva Biotech).
Recombinant baculovirus were generated according to Bac-to-Bac kit instructions (Life Technologies). Protein over-expression was accomplished by infecting exponentially growing HEK 293F cell culture at 1.3×10^6cell/ml with virus (MOI=10) in the presence of 8 mM sodium butyrate. Infections were carried out at 37° C. for 48 hours, harvested by centrifugation, and stored at −80° C. for purification.
Expressed full-length human Flag- and His-tagged CARM1 protein was purified from cell paste by anti-flag M2 affinity chromatography with resin equilibrated with buffer containing 20 mM Tris, 150 mM NaCl, 5% glycerol, pH 7.8. Column was washed with 500 mM NaCl in buffer A and Flag-CARM1-His was eluted with 200 ug/ml FLAG peptide in buffer A. Pooled fractions were dialyzed in 20 mM Tris, 150 mM NaCl, 5% glycerol and 1 mM DTT, pH 7.8.
The assays were all performed in a buffer consisting of 20 mM Bicine (pH=7.6), 1 mM TCEP, 0.005% BSG, and 0.002% Tween 20, prepared on the day of use. Compounds in 100% DMSO (1 ul) were spotted into a polypropylene 384-well V-bottom plates (Greiner) using a Platemate Plus outfitted with a 384-channel head (Thermo Scientific). DMSO (1 ul) was added to Columns 11, 12, 23, 24, rows A-H for the maximum signal control and 1 ul of SAH, a known product and inhibitor of CARM1, was added to columns 11, 12, 23, 24, rows I-P for the minimum signal control. A cocktail (40 ul) containing the CARM1 enzyme was added by Multidrop Combi (Thermo-Fisher). The compounds were allowed to incubate with CARM1 for 30 min at room temperature, then a cocktail (10 ul) containing ^3H-SAM and peptide was added to initiate the reaction (final volume=51 ul). The final concentrations of the components were as follows: CARM1 was 0.25 nM, ^3H-SAM was 30 nM, peptide was 250 nM, SAH in the minimum signal control wells was 1 mM, and the DMSO concentration was 2%. The assays were stopped by the addition of non-radiolabeled SAM (10 ul) to a final concentration of 300 uM, which dilutes the ^3H-SAM to a level where its incorporation into the peptide substrate is no longer detectable. 50 ul of the reaction in the 384-well polypropylene plate was then transferred to a 384-well Flashplate and the biotinylated peptides were allowed to bind to the streptavidin surface for at least 1 hour before being washed once with 0.1% Tween20 in a Biotek ELx405 plate washer. The plates were then read in a PerkinElmer TopCount plate reader to measure the quantity of ^3H-labeled peptide bound to the Flashplate surface, measured as disintegrations per minute (dpm) or alternatively, referred to as counts per minute (cpm).
where dpm=disintegrations per minute, cmpd=signal in assay well, and min and max are the respective minimum and maximum signal controls.
where top and bottom are the normally allowed to float, but may be fixed at 100 or 0 respectively in a 3-parameter fit. The Hill Coefficient normally allowed to float but may also be fixed at 1 in a 3-parameter fit. Y is the % inhibition and X is the compound concentration.

Chain of Human CARM1 (PRMT4) (Q86X55 other isoform, or with tags, fused parts or gaps isoform Q86X55-1): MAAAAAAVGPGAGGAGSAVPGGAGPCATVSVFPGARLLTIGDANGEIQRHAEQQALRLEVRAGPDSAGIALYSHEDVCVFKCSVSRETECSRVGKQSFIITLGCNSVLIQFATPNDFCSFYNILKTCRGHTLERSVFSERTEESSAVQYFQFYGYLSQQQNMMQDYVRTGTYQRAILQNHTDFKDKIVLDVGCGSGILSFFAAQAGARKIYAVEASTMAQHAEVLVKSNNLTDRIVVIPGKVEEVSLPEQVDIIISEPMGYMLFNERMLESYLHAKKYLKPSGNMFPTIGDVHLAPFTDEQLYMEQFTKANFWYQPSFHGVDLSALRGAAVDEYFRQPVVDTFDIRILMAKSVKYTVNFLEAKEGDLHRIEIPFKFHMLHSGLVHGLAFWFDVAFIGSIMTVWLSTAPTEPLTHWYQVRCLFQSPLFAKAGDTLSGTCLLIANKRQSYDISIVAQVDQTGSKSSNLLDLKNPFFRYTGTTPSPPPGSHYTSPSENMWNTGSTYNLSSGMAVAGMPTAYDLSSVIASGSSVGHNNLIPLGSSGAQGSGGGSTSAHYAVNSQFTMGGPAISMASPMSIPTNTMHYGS

SMILES	pIC50
CNC[C@H](O)COc1ccc(Cl)c(-c2nc(N[C@H]3CCN(C4CC4)C[C@H]3F)c(C)c(-c3c(C)noc3C)n2)c1 [Example 43-3]	> 7.00
CNCC(O)COc1cccc(-c2nc(N[C@@H]3CC[C@@H](O)C3)cc(-c3c(C)noc3C)n2)c1 (stereo partly drawn) [Example 44-1a]	> 7.00
CNC[C@@H](O)COc1ccc(Cl)c(-c2nc(N[C@H]3CCN(C4CC4)C[C@H]3F)c(C)c(-c3c(C)noc3C)n2)c1 [Example 44-3]	> 7.00
CNCC(O)COc1cc(Cl)cc(-c2nc(N[C@H]3CCOC3)c(C)c(-c3ccncc3)n2)c1 (stereo partly drawn) [Example 45-1]	> 7.00
CNCC(O)COc1cccc(-c2nc(NC3CC(C(=O)OC)C3)cc(-c3c(C)noc3C)n2)c1 (stereo not drawn) [Example 45-1a]	> 7.00
CNCC(O)COc1ccc(Cl)c(-c2nc(NC3CC4(C3)CN(C(=O)OC)C4)c(C)c(-c3c(C)noc3C)n2)c1 (stereo not drawn) [Example 45-3]	> 7.00
CNCC(O)COc1cccc(-c2nc(NC3CCOCC3)cc(-c3cc4ccccc4o3)n2)c1 (stereo not drawn) [Example 46-1]	> 7.00
CNCC(O)COc1ccc(Cl)c(-c2nc(NC3CC(C)N(C(=O)OC)C(C)C3)c(C)c(-c3c(C)noc3C)n2)c1 (stereo not drawn) [Example 46-3]	> 7.00
CNCC(O)COc1cc(Cl)cc(-c2nc(NC3CCOCC3)c(C)c(-c3c(C)noc3C)n2)c1 (stereo not drawn) [Example 47-1a]	> 7.00
CNCC(O)COc1cccc(-c2nc(-c3c(C)noc3C)c(C)c(N3CCNC(C(F)F)C3)n2)c1 (stereo not drawn) [Example 47-3]	> 7.00
CNCC(O)COc1cccc(-c2nc(-c3ccc4c(c3)OCCO4)cc(N(C)CCC#N)n2)c1 (stereo not drawn) [Example 48-1]	> 7.00
CCN1CCC[C@H]1CNc1nc(-c2cc(OC[C@@H](O)CNC)ccc2Cl)nc(-c2c(C)noc2C)c1C [Example 48-3]	> 7.00
CNCC(O)COc1cccc(-c2nc(-c3ccc(OC)c(OC)c3)cc(N(C)CCC#N)n2)c1 (stereo not drawn) [Example 49-1]	> 7.00
CNCC(O)COc1cccc(-c2nc(Nc3cnc(C)nc3)cc(-c3c(C)noc3C)n2)c1 (stereo not drawn) [Example 49-1a]	> 7.00
CCOC(=O)N1CCC[C@@H]1CNc1nc(-c2cc(OC[C@@H](O)CNC)ccc2Cl)nc(-c2c(C)noc2C)c1C [Example 49-3]	> 7.00
CNCC(O)COc1cccc(-c2nc(NCCCN3CCCC3=O)cc(-c3cncnc3)n2)c1 (stereo not drawn) [Example 50-1]	> 7.00
CNCC(O)COc1cccc(-c2nc(-c3c(C)noc3C)cc(N(C)c3cncnc3)n2)c1 (stereo not drawn) [Example 50-1a]	> 7.00
CNCC(O)COc1cccc(-c2nc(-c3c(C)noc3C)cc(N(C)c3cnc(OC)nc3)n2)c1 (stereo not drawn) [Example 51-1a]	> 7.00
CNCC(O)COc1cccc(-c2nc(NC3CCOCC3)cc(-c3cccc4ncccc34)n2)c1 (stereo not drawn) [Example 53-1]	> 7.00
CNCC(O)COc1cccc(-c2nc(SC)c(C)c(-c3c(C)noc3C)n2)c1 (stereo not drawn) [Example 53-1a]	> 7.00
CNC[C@H](O)COc1ccc(Cl)c(-c2nc(N[C@H]3C[C@H](OC)C3)c(C)c(-c3c(C)noc3C)n2)c1 [Example 53-3]	> 7.00
Cc1noc(C)c1-c1nc(-c2cccc(OCC(O)CN)c2)nc(NC2CCOCC2)c1C (stereo not drawn) [Example 54-1a]	> 7.00
CNC[C@H](O)COc1ccc(Cl)c(-c2nc(N[C@H]3C[C@@H](OC)C3)c(C)c(-c3c(C)noc3C)n2)c1 [Example 54-3]	> 7.00
CNCC(O)COc1cccc(-c2nc(-c3cnc4[nH]ccc4c3)cc(N(C)C3CCOCC3)n2)c1 (stereo not drawn) [Example 55-1]	> 7.00
CNC[C@H](O)COc1cccc(-c2nc(NC3CCOCC3)c(C)c(-c3c(C)noc3C)n2)c1 [Example 55-1a]	> 7.00
CNC[C@H](O)COc1ccc(Cl)c(-c2nc(-c3c(C)noc3C)c(C)c(N3CC4(CCN(C5CC5)CC4)C3)n2)c1 [Example 55-3]	> 7.00

SMILES	pIC50
CNCC(O)COc1cccc(-c2nc(-c3ccc(S(C)(=O)=O)cc3)cc(N(C)CCC#N)n2)c1 (stereo not drawn) [Example 56-1]	> 7.00
CNC[C@@H](O)COc1cccc(-c2nc(NC3CCOCC3)c(C)c(-c3c(C)noc3C)n2)c1 [Example 56-1a]	> 7.00
CCOC(=O)N1CCOC[C@@H]1CNc1nc(-c2cc(OC[C@H](O)CNC)ccc2Cl)nc(-c2c(C)noc2C)c1Cl [Example 56-3]	> 7.00
CNCC(O)COc1cccc(-c2nc(-c3ccnc(OC)c3)cc(N(CCOC)CCOC)n2)c1 (stereo not drawn) [Example 57-1]	> 7.00
CNCC(O)COc1cccc(-c2nc(-c3c(C)noc3C)c(C)c(N3CCS(=O)(=O)CC3)n2)c1 (stereo not drawn) [Example 57-1a]	> 7.00
CNCC(O)COc1ccc(Cl)c(-c2nc(N[C@H]3CCC[C@@H](OC)C3)c(C)c(-c3c(C)noc3C)n2)c1 (stereo partly drawn) [Example 57-3]	> 7.00
CNC[C@H](O)COc1ccc(Cl)c(-c2nc(NC[C@H]3COCCN3C(=O)OC)c(C)c(-c3c(C)noc3C)n2)c1 [Example 58-3]	> 7.00
CNCC(O)COc1cccc(-c2nc(-c3ccc4c(c3)OCCO4)cc(N(C)C3CCOCC3)n2)c1 (stereo not drawn) [Example 59-1]	> 7.00
CNCC(O)COc1cccc(-c2nc(NC3CCS(=O)(=O)CC3)c(C)c(-c3c(C)noc3C)n2)c1 (stereo not drawn) [Example 59-1a]	> 7.00
CCOC(=O)N1CCOC[C@H]1CNc1nc(-c2cc(OC[C@@H](O)CNC)ccc2F)nc(-c2c(C)noc2C)c1C [Example 59-3]	> 7.00
CNCC(O)COc1cccc(-c2nc(NCCCN3CCCC3=O)cc(-c3ccnc(OC)c3)n2)c1 (stereo not drawn) [Example 60-1]	> 7.00
CNCC(O)COc1cccc(-c2nc(NC3CCS(=O)(=O)CC3)cc(-c3c(C)noc3C)n2)c1 (stereo not drawn) [Example 60-1a]	> 7.00
CCOC(=O)N1CCOC[C@H]1CNc1nc(-c2cc(OC[C@H](O)CNC)ccc2F)nc(-c2c(C)noc2C)c1C [Example 60-3]	> 7.00
CNCC(O)COc1cccc(-c2nc(-c3c(C)noc3C)cc(N(C)c3cnc(C)nc3)n2)c1 (stereo not drawn) [Example 61-1a]	> 7.00
CCOC(=O)N1CCOC[C@@H]1CNc1nc(-c2cc(OC[C@@H](O)CNC)ccc2F)nc(-c2c(C)noc2C)c1C [Example 61-3]	> 7.00
CNCC(O)COc1cccc(-c2nc(-c3ccc4c(c3)OCCO4)cc(N(CCOC)CCOC)n2)c1 (stereo not drawn) [Example 62-1]	> 7.00
CCOC(=O)N1CCOC[C@@H]1CNc1nc(-c2cc(OC[C@H](O)CNC)ccc2F)nc(-c2c(C)noc2C)c1C [Example 62-3]	> 7.00
CNC[C@H](O)COc1ccc(F)c(-c2nc(N[C@H]3CCN(C(=O)OC)C[C@H]3F)c(C)c(-c3c(C)noc3C)n2)c1 [Example 63-3]	> 7.00
CNCC(O)COc1cccc(-c2nc(-c3ccc(OC)c(OC)c3)cc(N(CCOC)CCOC)n2)c1 (stereo not drawn) [Example 64-1]	> 7.00
CNC[C@@H](O)COc1ccc(F)c(-c2nc(N[C@H]3CCN(C(=O)OC)C[C@H]3F)c(C)c(-c3c(C)noc3C)n2)c1 [Example 64-3]	> 7.00
CNC[C@H](O)COc1ccc(Cl)c(-c2nc(N[C@H]3CCN(C(=O)OC)C[C@H]3F)c(C)c(-c3c(C)noc3C)n2)c1 [Example 65-3]	> 7.00
CNCC(O)COc1cccc(-c2nc(N[C@@H]3CCOC3)c(C)c(-c3c(C)noc3C)n2)c1 (stereo partly drawn) [Example 66-1a]	> 7.00
CNC[C@H](O)COc1ccc(Cl)c(-c2nc(N[C@@H]3CCN(C(=O)OC)[C@@H](C)C3)c(C)c(-c3c(C)noc3C)n2)c1 [Example 66-3]	> 7.00
CNCC(O)COc1cccc(-c2nc(N[C@H]3C[C@@](C)(O)C3)cc(-c3c(C)noc3C)n2)c1 (stereo partly drawn) [Example 67-1a]	> 7.00
CCS(=O)(=O)N1CCC(Nc2nc(-c3cc(OC[C@@H](O)CNC)ccc3Cl)nc(-c3c(C)noc3C)c2C)CC1 [Example 67-3]	> 7.00
